Assay results taken from ChEMBL document CHEMBL1151096, “7-aminoalkyl-2-amino-1,2,3,4-tetrahydro-2-naphthoic acids as inhibitors of tryptophan uptake” (Bioorg Med Chem Lett, 1992).

Test system: WiDr
Test: Compound was tested for inhibition of 14C-Tryptophan uptake in WiDr human adenocarcinoma cells and the effect was determined at 0-100 uM concentration
Type: functional, cell-based

Going from CC(C)Nc1ccc2c(c1)CC(N)(C(=O)O)CC2 (stereo not drawn) to CCCNc1ccc2c(c1)CC(N)(C(=O)O)CC2 (stereo not drawn), the Ki rises from 0.6 µM to 1.7 µM (2.8-fold).

First: NC1(C(=O)O)CCc2ccc(N(CCO)CCO)cc2C1 (stereo not drawn)
Second: NC1(C(=O)O)CCc2ccc(N(CCCl)CCCl)cc2C1 (stereo not drawn)
The Ki of the first is 1.7-fold higher: 1.4 µM for the first, 0.8 µM for the second. The second binds more tightly here.

First: CN(C)c1ccc2c(c1)CC(N)(C(=O)O)CC2 (stereo not drawn)
Second: Nc1ccc2c(c1)CC(N)(C(=O)O)CC2 (stereo not drawn)
The Ki of the first is 24-fold lower: 1.4 µM for the first, 34 µM for the second.

Compared with NC1(C(=O)O)CCc2ccccc2C1 (stereo not drawn), CCCN(CCC)c1ccc2c(c1)CC(N)(C(=O)O)CC2 (stereo not drawn) is 5-fold lower in Ki: 37 µM for the first, 7.4 µM for the second.
